Experimental data from patent US11338007B2, “Combination formulation of three antiviral compounds” (priority 2016, dated 2022).

Experiments:
[1] = Aqueous solubility of voxilaprevir Form VIII relative to Form VI; type: physicochemical
[2] = Physical stability of tablets spiked with crystalline voxilaprevir Form VIII and Form X (Tables 22, 23); type: physicochemical; conditions: in tablets in the presence of pre-existing crystalline voxilaprevir
Procedure: For each of the impact studies, the sofosbuvir/velpatasvir SSD/voxilaprevir SSD tablets were packaged in a designated commercial packaging configuration (28-count, 100 mL HPDE bottle, coil, 1 g desiccant), and stored for 12 weeks at 25° C./60% RH and 40° C./75% RH. Tablets were also packaged in open containers (28-count, 100 mL HPDE bottle without cap) and stored for 4 weeks at 40° C./75% RH and for 1 week at 50° C./92% RH.
The impact of crystalline voxilaprevir Form VIII and Form X seeds on the physical stability and dissolution of sofosbuvir/velpatasvir SSD/voxilaprevir SSD tablets was evaluated (Tables 22 and 23). As described in Table 22, sofosbuvir/velpatasvir SSD/voxilaprevir SSD tablets Lots A and B were spiked with 5 and 10% w/w Form VIII (% w/w with respect to total voxilaprevir), respectively. Sofosbuvir/velpatasvir SSD/voxilaprevir SSD tablets Lots C and D, as described in Table 23, were spiked with 10 and 20% w/w Form X (% w/w with respect to total voxilaprevir), respectively.

[3] = Relative bioavailability of voxilaprevir amorphous free acid tablets vs Form VI tablets, fasted and fed, healthy subjects (Table 3); type: in vivo, human
From the text: Accordingly, a spray dried dispersion of voxilaprevir in the amorphous free acid form was selected for incorporation into the tablet formulation.

[4] = 100 mg tablets, healthy subjects

CC[C@@H]1[C@@H]2CN(C(=O)[C@H](C(C)(C)C)NC(=O)O[C@@H]3C[C@H]3CCCCC(F)(F)c3nc4ccc(OC)cc4nc3O2)[C@@H]1C(=O)N[C@]1(C(=O)NS(=O)(=O)C2(C)CC2)C[C@H]1C(F)F [Form VIII, voxilaprevir]
aqueous solubility, less than that of crystalline Form VI [1]: approximately 50%

COC[C@H]1C[C@@H](c2ncc(-c3ccc4c(c3)COc3cc5c(ccc6nc([C@@H]7CC[C@H](C)N7C(=O)[C@@H](NC(=O)OC)C(C)C)[nH]c65)cc3-4)[nH]2)N(C(=O)[C@H](NC(=O)OC)c2ccccc2)C1 [amorphous velpatasvir free base, velpatasvir]
tendency to crystallize [2]: no tendency to crystallize

CC[C@@H]1[C@@H]2CN(C(=O)[C@H](C(C)(C)C)NC(=O)O[C@@H]3C[C@H]3CCCCC(F)(F)c3nc4ccc(OC)cc4nc3O2)[C@@H]1C(=O)N[C@]1(C(=O)NS(=O)(=O)C2(C)CC2)C[C@H]1C(F)F [Amorphous Free Acid, voxilaprevir]
higher Cmax compared to Form VI tablets (2×50 mg) [3, 4]: ~43% | higher exposure (AUC) compared to Form VI tablets (2×50 mg) [3, 4]: approximately 9% | Cmax ([3]; single dose 100 mg, healthy subjects, fed (with moderate food)): 44.2 ng/mL | Geometric Least Square Ratio Amorphous Free Acid/Form VI GMR, AUCinf ([3]; single dose, fasted): 1.09 | Geometric Least Square Ratio Amorphous Free Acid/Form VI GMR, Cmax ([3]; single dose, fasted): 1.43 | tendency to crystallize [2]: no tendency to crystallize
